Each structure is given as a SMILES string. Like-named read-outs stand apart in the source and are kept apart here.

Series [1] in a line: Serum lipid-adjusted dioxin congener concentrations in former chlorophenol workers, repeated blood sampling 2004–2005 and 2010. Format: in vivo, human. The note with it: for Mean percent change: change in concentration from 2004–2005 to 2010; for Concentration 2004–2005, Mean ± SD / Concentration 2010, Mean ± SD: serum, 56 Midland study participants. An excerpt: Participant selection. The selection strategy called for drawing a stratified random sample of workers included in the previous 2004–2005 blood draw. […] We used the 95th percentile of age-specific U.S. population concentrations for each congener identified in the National Health and Nutrition Examination Survey (NHANES; [Centers for Disease Control and Prevention 2009]) to define the upper ends of the background ranges. Nine strata were formed based jointly on previous serum levels of TCDD (high, > 50 ppt; moderate, 10–50 ppt; and background, < 10 ppt), representing workers in predominantly TCP processes, and OCDD (high, > 5,000 ppt; moderate, 1,000–5,000 ppt; and background, < 1,000 ppt), representing those with experience in PCP processes. We attempted to enroll participants representing each of these strata. Invitations to participate were sent to our target sample of 72 workers who were selected based on these congener concentration criteria.
Questionnaire and data collection methods. We conducted the serum analyses in 2010 using the same protocol, procedures, and laboratory as in the 2004–2005 blood draw ([Collins et al. 2006]). The serum samples were tested for 7 polychlorinated dibenzo-p-dioxins (PCDDs), 10 polychlorinated dibenzofurans (PCDFs), and 15 polychlorinated biphenyls (PCBs). […] The study was conducted pursuant to approval and oversight by the Dow Human Subjects Review Board in Midland, Michigan. All study participants gave informed consent.
On the day of examination in the fall of 2010, participants donated blood and completed the same questionnaire originally administered during the 2004–2005 sampling effort ([Collins et al. 2006]). The questionnaire addressed dietary and smoking habits, work history, and recent changes in weight. Height, weight, and blood pressure were also measured. Diagnosis of chloracne during occupational exposure was extracted from workplace medical records; the criteria for chloracne diagnosis were defined previously by [Bond et al. (1990)].

The nature of series [2]: Elimination half-lives from serial serum samples, first-order one-compartment model. The note with it: human, serum (lipid-adjusted), other: occupational exposure, 56 participants. Format: in vivo. From the text:
Elimination rates. Changes in measured concentrations of persistent compounds such as PCDDs and PCDFs reflect not only intrinsic elimination rates but also any ongoing intakes of the compounds and changes in the volume of distribution, in this case, the volume of body lipids ([Bartell 2012]; [Ritter et al. 2009], [2011]). If current body concentrations are high relative to steady-state concentrations associated with current background intake rates, apparent elimination rates will approximate intrinsic elimination rates ([Bartell 2012]; [van der Molen et al. 1998]). If, on the other hand, background intakes are high compared with current body concentrations, the estimated apparent elimination rate will be lower than the intrinsic rates. Robust data regarding ongoing congener intake rates were not available, so the elimination rates were first calculated based on net rate of change of the congeners, which reflects both intrinsic elimination rates and unmeasured intake rates, termed “apparent” elimination rates.
We calculated apparent elimination rates in two ways: based on changes in concentration, or based on changes in estimated body amounts. For the former approach, concentrations of congener i in 2005 and 2010 (Ci,2005 and Ci,2010, respectively) and time between sampling dates (Δt), were used to estimate the elimination rate (ki):
Concentrations of lipophilic compounds may change in response to changes in the volume of distribution (increase or decrease in amount of body fat), even in the absence of any elimination or additional exposure ([Charlier et al. 2002]; [Chevrier et al. 2000]; [Hue et al. 2006]; [Imbeault et al. 2001]; [Pelletier et al. 2002]; [Walford et al. 1999]). Thus, we also estimated the rate of change in estimated whole body mass of each congener. For the approach based on changes in estimated mass of dioxins in the body, the congener concentrations in 2005 and 2010 were replaced by the estimated amounts, A, of congener i in the body:
where PBF is percent body fat estimated using an age-, sex-, and body mass index (BMI)-specific formula, which has been validated in adults over a range of ages including those of the participants in this study ([Deurenberg et al. 1991]), BW is body weight in kilograms, and Ci is the serum lipid–adjusted concentration of congener i. This approach assumes that the compound is distributed solely in body lipid. The resulting amount, Ai, calculated for each sampling time and congener was used in Equation 1 in place of concentration for calculating the apparent whole-body mass-based elimination rate.
Elimination half-lives (t1/2) corresponding to the estimated elimination rates, (k) were calculated for some comparisons with previous literature:
Inclusion of plausible background exposures. […] Changes in concentration or estimated mass of compound in the body reflect the net effect of both elimination and any ongoing exposures between sampling time points. Under a first-order model, the amount of compound in the body in 2010 (A2010) is a function of both the intrinsic elimination rate, kint, and the ongoing exposure rate between sampling time points:
where D is the yearly dose rate in nanograms per year, and A2005 is the starting amount in 2005. As described by [Ritter et al. (2011)], intrinsic elimination rates can be estimated if ongoing exposure levels are known or can be estimated.

On the set-up of series [3]: method as in Patterson et al. 2009. The note with it: persons ≥ 60 years of age, ref Patterson et al. 2009, cited from earlier work; for NHANES (2003–2004) P95: 95th percentile; for NHANES (2003–2004) P50: 50th percentile, LODs variable.
On the set-up of series [4]: method as in van den Berg et al. 2006. The note with it: WHO toxic equivalency factor; ref van den Berg et al. 2006; cited from earlier work.
The conditions of series [5]: cited from earlier work; for Half-life of elimination, Rohde et al. 1999 (mean) / Half-life of elimination, Flesch-Janys et al. 1996 (median): from change in concentration; for Half-life of elimination, Rohde et al. 1999 (mean): n = 6, ages 41–73 years, ref Rohde et al. 1999; for Half-life of elimination, Flesch-Janys et al. 1996 (median): n = 26 to 48, mean age 48.7 years at first sampling, ref Flesch-Janys et al. 1996.

[6] abbreviates: based on change in estimated mass of the congener in the body, read-out: Elimination half-lives [median (P25–P75)], Apparent, mass based (converted).
The mark [7] stands for this setting: based on change in serum lipid concentration, read-out: Elimination half-lives [median (P25–P75)], Apparent, concentration based (converted).
[8] abbreviates: change in body mass after accounting for plausible background intake (Table 3), read-out: Elimination half-lives [median (P25–P75)], Estimated intrinsic (converted).

With `Clc1cc2c(cc1Cl)Oc1c(Cl)c(Cl)c(Cl)c(Cl)c1O2` [Congener 14HxCDD, 1,2,3,4,7,8-hexachlorodibenzo-p-dioxin], in series [1], the Mean percent change result was “–34%”; the “Concentration 2004–2005, Mean ± SD” value was determined as 16.0 ± 11.9 pg/g lipid; the “Concentration 2010, Mean ± SD” value was 10.5 ± 7.9 pg/g lipid. In series [2] (setting [6]), the half-life was 3000 days. In addition, the half-life in series [2] (setting [7]) was 2960 days. Besides, the half-life in series [2] (setting [8]) is 2560 days. For the same compound, the “NHANES (2003–2004) P95” value in series [3] is 15.1 pg/g lipid. Moreover, the TEF in series [4] is 0.1. For the same compound, in series [5], the “Half-life of elimination, Rohde et al. 1999 (mean)” value (“Half-life of elimination … (mean)” below) is on record as 13.9 years and the “Half-life of elimination, Flesch-Janys et al. 1996 (median)” value (shortened to “Half-life of elimination … (median)”) is listed as 8.4 years.

`Clc1cc2c(c(Cl)c1Cl)Oc1cc(Cl)c(Cl)c(Cl)c1O2` [Congener 16HxCDD, 1,2,3,6,7,8-hexachlorodibenzo-p-dioxin]: in series [1], the Mean percent change result is given as “–31%”; the “Concentration 2004–2005, Mean ± SD” value stood at 136.6 ± 99.9 pg/g lipid; the “Concentration 2010, Mean ± SD” value is given as 94.3 ± 70.8 pg/g lipid. In series [2] (setting [6]), the half-life was 4020 days. Moreover, the half-life in series [2] (setting [7]) was 3690 days. For the same compound, the half-life in series [2] (setting [8]) is 3290 days. Also, in series [3], the “NHANES (2003–2004) P50” value was 47.3 pg/g lipid and the “NHANES (2003–2004) P95” value is reported as 104 pg/g lipid. For the same compound, the TEF in series [4] is recorded as 0.1. In series [5], the “Half-life of elimination … (mean)” value is 11.6 years and the “Half-life of elimination … (median)” value is recorded as 13.1 years.

As to `Clc1cc2c(c(Cl)c1Cl)Oc1c(cc(Cl)c(Cl)c1Cl)O2` [Congener 19HxCDD, 1,2,3,7,8,9-hexachlorodibenzo-p-dioxin], in series [1], the Mean percent change result is “–42%”; the “Concentration 2004–2005, Mean ± SD” value worked out at 19.4 ± 14.5 pg/g lipid; the “Concentration 2010, Mean ± SD” value is given as 11.3 ± 9.8 pg/g lipid. For the same compound, in series [2] (setting [6]), the half-life was 2480 days. Besides, in series [2] (setting [7]), the half-life is 2260 days. For the same compound, the half-life in series [2] (setting [8]) is 2300 days. For the same compound, the “NHANES (2003–2004) P95” value in series [3] is 16.2 pg/g lipid. Further, the TEF in series [4] is listed as 0.1. Moreover, in series [5], the “Half-life of elimination … (mean)” value is on record as 7.7 years and the “Half-life of elimination … (median)” value is recorded as 4.9 years.

Consider `Clc1cc2c(c(Cl)c1Cl)Oc1c(Cl)c(Cl)c(Cl)c(Cl)c1O2` [HpCDD, 1,2,3,4,7,8,9-heptachlorodibenzo-p-dioxin], for which, in series [1], the Mean percent change result is listed as “–46%”; the “Concentration 2004–2005, Mean ± SD” value is recorded as 159.9 ± 161.8 pg/g lipid; the “Concentration 2010, Mean ± SD” value was 87.1 ± 83.3 pg/g lipid. Besides, the “2004–2005 median concentration” value in series [1] (present study) is reported as 88.6 pg/g lipid. For the same compound, the half-life in series [2] (setting [6]) is 2780 days. The half-life in series [2] (setting [7]) was 2560 days. In addition, the half-life in series [2] (setting [8]) was 2450 days. Moreover, in series [4], the TEF is 0.01. In addition, in series [5], the “Half-life of elimination … (mean)” value is on record as 4.3 years and the “Half-life of elimination … (median)” value is listed as 3.7 years. The “Median concentration at first sampling time point” value in series [5] (ref Flesch-Janys et al. (1996)) is on record as 641 pg/g lipid.

With `Clc1c(Cl)c(Cl)c2c(c1Cl)Oc1c(Cl)c(Cl)c(Cl)c(Cl)c1O2` [OCDD, octachlorodibenzo-p-dioxin], in series [1], the Mean percent change entry is “–41%”; the “Concentration 2004–2005, Mean ± SD” value is on record as 1919.6 ± 2121.0 pg/g lipid; the “Concentration 2010, Mean ± SD” value came out at 1124.7 ± 1232.0 pg/g lipid. Besides, the half-life in series [2] (setting [6]) was 3030 days. Also, the half-life in series [2] (setting [7]) is 2850 days. Besides, the half-life in series [2] (setting [8]) was 2670 days. In series [3], the “NHANES (2003–2004) P50” value is on record as 370 pg/g lipid and the “NHANES (2003–2004) P95” value is on record as 1,180 pg/g lipid. The TEF in series [4] is 0.0003. Moreover, in series [5], the “Half-life of elimination … (mean)” value was 8.7 years and the “Half-life of elimination … (median)” value was 6.7 years.

Regarding `Clc1cccc2c1Oc1c(Cl)c(Cl)c(Cl)c(Cl)c1O2` [PeCDD, pentachlorodibenzo-p-dioxin], in series [1], the Mean percent change entry is recorded as “–28%”; the “Concentration 2004–2005, Mean ± SD” value was 19.7 ± 11.3 pg/g lipid; the “Concentration 2010, Mean ± SD” value stood at 14.2 ± 8.6 pg/g lipid. Besides, in series [2] (setting [6]), the half-life was 4240 days. The half-life in series [2] (setting [7]) was 3910 days. Also, in series [2] (setting [8]), the half-life was 3910 days. In series [3], the “NHANES (2003–2004) P50” value is recorded as 8.0 pg/g lipid and the “NHANES (2003–2004) P95” value was 17.7 pg/g lipid. In series [4], the TEF was 1. In series [5], the “Half-life of elimination … (mean)” value was 13.9 years and the “Half-life of elimination … (median)” value was 15.7 years.

On to `Clc1cc2c(cc1Cl)Oc1cc(Cl)c(Cl)cc1O2` [TCDD, 2,3,7,8-tetrachlorodibenzo-p-dioxin], for which, in series [1], the Mean percent change entry was “–39%”; the “Concentration 2004–2005, Mean ± SD” value is 21.1 ± 30.0 pg/g lipid; the “Concentration 2010, Mean ± SD” value is reported as 12.9 ± 19.6 pg/g lipid. Further, the half-life in series [2] (setting [6]) was 2560 days. Moreover, the half-life in series [2] (setting [7]) was 2370 days. Further, the half-life in series [2] (setting [8]) was 2370 days. Moreover, the “NHANES (2003–2004) P95” value in series [3] is 7.9 pg/g lipid. Further, in series [4], the TEF is 1. Besides, in series [5], the “Half-life of elimination … (mean)” value is 8.7 years and the “Half-life of elimination … (median)” value is reported as 7.2 years.

These data come from article PMC3552814, “Elimination Rates of Dioxin Congeners in Former Chlorophenol Workers from Midland, Michigan” (Environmental Health Perspectives, 2012).
